According to patent US12545637B2, “Extrahepatic targeted cationic lipid compound with high efficiency and low toxicity and its composition” (BEIJING YOUCARE KECHUANG PHARMACEUTICAL TECHNOLOGY CO., LTD., priority 2023, dated 2026):
Values joined by “and” are separate entries in the source; they are usually repeats but may differ in a detail not shown here. Equal entries are not always repeated.

Tests used:
[1] = system: female BALB/C mice; assay: Distribution of liposomes in mice (protein expression in liver, spleen, lung, heart and kidney); assay type: in vivo; conditions: mouse, in vivo
Protocol: The LNP formulation (prepared according to Example 4) containing […] Fluc-mRNA was injected intramuscularly into female BALB/C mice aged 4-6 weeks and weighed 17-19 g, and the mice were intraperitoneally injected with fluorescent imaging substrate at specific time points after administration (6h, 24 h, 48h and 7d), where the mice were allowed to free move for 5 minutes, and then the average radiation intensity (corresponding to fluorescence expression intensity) of the protein expression of the mRNA carried by the LNP in the mice was detected by the IVIS Spectrum small animal in vivo imaging system.
Current mRNA vaccines usually express proteins in muscle.

[2] = system: female BALB/C mice; assay: In vivo imaging in mice of Fluc-mRNA LNP formulations (mRNA expression and duration); conditions: for average radiation intensity, 6 h / average radiation intensity, 24 h / average radiation intensity, 48 h / average radiation intensity, 7 d: Fluc-mRNA LNP intramuscular; for average radiation intensity, 6 h: 6 h after administration; for average radiation intensity, 24 h: 24 h after administration; for average radiation intensity, 48 h: 48 h after administration; for average radiation intensity, 7 d: 7 d after administration
Method in brief: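 Female BALB/C mice (4-6 weeks, 17-19 g) received LNP carrying […] Fluc-mRNA intramuscularly. At 6h, 24 h, 48h and 7d, fluorescent imaging substrate was given intraperitoneally and after 5 minutes average radiance, as a measure of expressed protein, was imaged on an IVIS Spectrum system.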

[3] = system: 293T cells; assay: Cell survival rate assay (CCK-8); assay type: cell-based; conditions: for Cell survival rate: LNP with 1.5 μg Fluc-mRNA, 24 hours, CCK-8; for cell survival rate higher than ALC-0315: difference vs ALC-0315; for cell survival rate higher than HIMA: difference vs HIMA (HHMA); for cell survival rate higher than Lipofectamine 3000: difference vs Lipofectamine 3000; for cell survival rate higher than SM-102: difference vs SM-102; for cell survival rate higher than YK-404: difference vs YK-404; for cell survival rate higher than YK-405: difference vs YK-405; for cell survival rate higher than YK-406: difference vs YK-406; for cell survival rate higher than YK-408: difference vs YK-408; for cell survival rate higher than YK-409: difference vs YK-409; for cell survival rate higher than YK-410: difference vs YK-410; for cell survival rate higher than YK-411: difference vs YK-411; for cell survival rate higher than YK-412: difference vs YK-412; for cell survival rate higher than YK-413: difference vs YK-413; for cell survival rate higher than YK-414: difference vs YK-414; for cell survival rate higher than YK-415: difference vs YK-415; for cell survival rate higher than YK-416: difference vs YK-416; for cell survival rate higher than YK-417: difference vs YK-417; for cell survival rate higher than YK-418: difference vs YK-418; for cell survival rate higher than YK-419: difference vs YK-419; for cell survival rate higher than YK-420: difference vs YK-420; for cell survival rate higher than YK-421: difference vs YK-421; for cell survival rate higher than YK-424: difference vs YK-424; for cell survival rate higher than compound 21: difference vs compound 21; for cell survival rate higher than compound 23: difference vs compound 23; for cytotoxicity reduced compared with YK-411: rounded summary statement vs YK-411
Method in brief: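 293T cells seeded at 10,000 cells/well, cultured overnight, then exposed 24 h to LNP carrying 1.5 μg Fluc-mRNA (cationic:neutral:structured:PEG-type lipid 49:10:39.5:1.5) or Lipofectamine 3000. Viability read by CCK-8, 1 h incubation, absorbance at 450 nm.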

[4] = Particle size and polydispersity index (PDI) of lipid nanoparticles by dynamic light scattering; assay type: physicochemical; conditions: for PDI: LNP formulation of the cationic lipid, 25° C.; for Particle size: LNP formulation of the cationic lipid/DSPC/cholesterol/DMG-PEG2000 49:10:39.5:1.5, 25° C.
Protocol: The particle size and polydispersity index (PDI) were determined by dynamic light scattering using Malvern laser particle size analyzer.
10 μL of the liposome solution was weighed, diluted to 1 mL with RNase-free deionized water, and added to the sample pool. Each sample was measured in triplicate. The measurement conditions were: […] scattering angle, and 25° C.

## CCCCCCCCC(CCCCCCCC)C(=O)OCCCCCCN(CCO)CCN(CCO)CCCCCCOC(=O)C(CCCCCCCC)CCCCCCCC [YK-402]
[1]; female, BALB/C, 6 h
  protein expression in the liver: reduced compared with SM-102
[1]
  protein expression in the liver: had protein expression in the liver
  protein expression in the spleen: had protein expression in the spleen
[2]; 6 h
  average radiation intensity, times that of ALC-0315: 1.75
  average radiation intensity, times that of HHMA: 2.22
  average radiation intensity, times that of SM-102: 2.13
  average radiation intensity, times that of compound 21: 2.45
  average radiation intensity, times that of compound 23: 2.53
  expression amount in mice, times that of YK-415: 12.48
  expression amount in mice, times that of YK-417: 24.31
  mRNA expression in mice, times that of YK-411: 251.30
[2]; 24 h
  average radiation intensity, times that of ALC-0315: 4.21
  average radiation intensity, times that of HHMA: 6.65
  average radiation intensity, times that of SM-102: 6.47
  average radiation intensity, times that of compound 21: 7.19
  average radiation intensity, times that of compound 23: 7.91
  expression amount in mice, times that of YK-415: 12.38
  expression amount in mice, times that of YK-417: 39.95
  mRNA expression in mice, times that of YK-411: 394.86
[2]; 48 h
  average radiation intensity, times that of ALC-0315: 8.62
  average radiation intensity, times that of HHMA: 10.37
  average radiation intensity, times that of SM-102: 10.52
  average radiation intensity, times that of compound 21: 10.96
  average radiation intensity, times that of compound 23: 10.50
  expression amount in mice, times that of YK-415: 21.90
  expression amount in mice, times that of YK-417: 49.08
  mRNA expression in mice, times that of YK-411: 354.61
[2]; 7 d
  average radiation intensity, times that of ALC-0315: 1.42
  average radiation intensity, times that of HHMA: 1.67
  average radiation intensity, times that of SM-102: 1.48
  average radiation intensity, times that of compound 21: 1.56
  average radiation intensity, times that of compound 23: 1.63
  expression amount in mice, times that of YK-415: 2.46
  expression amount in mice, times that of YK-417: 4.35
  mRNA expression in mice, times that of YK-411: 20.71
[2]
  average radiation intensity, 6 h: 1470100
  average radiation intensity, 24 h: 798408
  average radiation intensity, 48 h: 345740
  average radiation intensity, 7 d: 9940
[3]
  Cell survival rate: 72.70%
  cell survival rate higher than ALC-0315: 25.49%
  cell survival rate higher than HIMA: 8.43%
  cell survival rate higher than Lipofectamine 3000: 51.04%
  cell survival rate higher than SM-102: 4.80%
  cell survival rate higher than YK-404: 30.58%
  cell survival rate higher than YK-405: 30.84%
  cell survival rate higher than YK-406: 47.74%
  cell survival rate higher than YK-408: 30.39%
  cell survival rate higher than YK-409: 26.59%
  cell survival rate higher than YK-410: 27.78%
  cell survival rate higher than YK-411: 56.37%
  cell survival rate higher than YK-412: 18.56%
  cell survival rate higher than YK-413: 25.50%
  cell survival rate higher than YK-414: 43.95%
  cell survival rate higher than YK-415: 11.54%
  cell survival rate higher than YK-416: 31.73%
  cell survival rate higher than YK-417: 51.36%
  cell survival rate higher than YK-418: 51.65%
  cell survival rate higher than YK-419: 33.78%
  cell survival rate higher than YK-420: 37.11%
  cell survival rate higher than YK-421: 36.99%
  cell survival rate higher than YK-424: 44.77%
  cell survival rate higher than compound 21: 4.86%
  cell survival rate higher than compound 23: 3.59%
  cytotoxicity reduced compared with YK-411: 50%
[4]
  PDI: 17.1%
  Particle size: 155 nm

## CCCCCCCCCCCOC(=O)CCCN(CCO)CCN(CCO)CCCCCC(=O)OC(CCCCCCCC)CCCCCCCC [YK-407]
[1]
  protein expression in the liver: had no protein expression in the liver
  protein expression in the spleen: had protein expression in the spleen
[2]; 6 h
  average radiation intensity, times that of ALC-0315: 4.76
  average radiation intensity, times that of HHMA: 6.05
  average radiation intensity, times that of SM-102: 5.79
  average radiation intensity, times that of compound 21: 6.66
  average radiation intensity, times that of compound 23: 6.88
  expression amount in mice, times that of YK-415: 33.96
  expression amount in mice, times that of YK-417: 66.16
[2]; 24 h
  average radiation intensity, times that of ALC-0315: 10.62
  average radiation intensity, times that of HHMA: 16.80
  average radiation intensity, times that of SM-102: 16.34
  average radiation intensity, times that of compound 21: 18.15
  average radiation intensity, times that of compound 23: 19.97
  expression amount in mice, times that of YK-415: 31.25
  expression amount in mice, times that of YK-417: 100.86
  mRNA expression in mice, times that of YK-411: 996.97 and 1000
[2]; 48 h
  average radiation intensity, times that of ALC-0315: 22 and 22.06
  average radiation intensity, times that of HHMA: 27 and 26.55
  average radiation intensity, times that of SM-102: 27 and 26.93
  average radiation intensity, times that of compound 21: 28 and 28.07
  average radiation intensity, times that of compound 23: 27 and 26.89
  expression amount in mice, times that of YK-415: 56.07
  expression amount in mice, times that of YK-417: 125.66 and 120
  mRNA expression in mice, times that of YK-411: 907.99
[2]; 7 d
  average radiation intensity, times that of ALC-0315: 6.90
  average radiation intensity, times that of HHMA: 8.13
  average radiation intensity, times that of SM-102: 7.20
  average radiation intensity, times that of compound 21: 7.59
  average radiation intensity, times that of compound 23: 7.93
  expression amount in mice, times that of YK-415: 11.98
  expression amount in mice, times that of YK-417: 21.20 and 20
  mRNA expression in mice, times that of YK-411: 100.85 and 100
[2]
  average radiation intensity, 6 h: 4001500
  average radiation intensity, 24 h: 2015870
  average radiation intensity, 48 h: 885288
  average radiation intensity, 7 d: 48410
[3]
  Cell survival rate: 71.37%
  cell survival rate higher than ALC-0315: 24.16%
  cell survival rate higher than HIMA: 7.10%
  cell survival rate higher than Lipofectamine 3000: 49.71%
  cell survival rate higher than SM-102: 3.47%
  cell survival rate higher than YK-404: 29.25%
  cell survival rate higher than YK-405: 29.51%
  cell survival rate higher than YK-406: 46.41%
  cell survival rate higher than YK-408: 29.06%
  cell survival rate higher than YK-409: 25.26%
  cell survival rate higher than YK-410: 26.45%
  cell survival rate higher than YK-411: 55.04%
  cell survival rate higher than YK-412: 17.23%
  cell survival rate higher than YK-413: 24.17%
  cell survival rate higher than YK-414: 42.62%
  cell survival rate higher than YK-415: 10.21%
  cell survival rate higher than YK-416: 30.40%
  cell survival rate higher than YK-417: 50.03%
  cell survival rate higher than YK-418: 50.32%
  cell survival rate higher than YK-419: 32.45%
  cell survival rate higher than YK-420: 35.78%
  cell survival rate higher than YK-421: 35.66%
  cell survival rate higher than YK-424: 43.44%
  cell survival rate higher than compound 21: 3.53%
  cell survival rate higher than compound 23: 2.26%
  cytotoxicity reduced compared with YK-411: 50% and 55%
[4]
  PDI: 16.6%
  Particle size: 162 nm
